Results from patent US20250179103A1, “6-OXODECAHYDROPYRROLO[1,2-A][1,5]DIAZOCINE AND 6-OXODECAHYDRO-4H-PYRROLO[2,1-D][1,5]THIAZOCINE DERIVATIVES AS STAT3 AND STAT6 MODULATORS FOR THE TREATMENT OF CANCER AND INFLAMMATORY CONDITIONS” (Recludix Pharma, Inc., priority 2022, published 2025).

What was measured:
[1] = target: T1, Recombinant STAT3 protein (STAT3(G127-I722)) (Homo sapiens, UniProt P40763); experiment: STAT3 Fluorescence Polarization (FP) Assay; format: binding; conditions: STAT3(G127-I722) 25 nM, probe 5-FAM-GpYLPQTV-NH2 2 nM, 45-minute incubation
T1 construct: Recombinant STAT3 protein (STAT3(G127-I722))
Method in brief: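 STAT3(G127-I722), 25 nM, was mixed with 2 nM 5-FAM-GpYLPQTV-NH2 probe in HEPES pH 7.4 buffer with 1% DMSO and serially diluted compound. FP (mP) was read after 45 min at room temperature. IC50 came from nonlinear regression.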

[2] = target: T2, Recombinant STAT6 protein (STAT6(W123-T658)) (Homo sapiens, UniProt P42226); experiment: STAT6 Fluorescence Polarization (FP) Assay; format: binding; conditions: STAT6(W123-T658) 250 nM, probe 5-FAM-ApYKPFQDLI-NH2 2 nM, 45-minute incubation
T2 construct: Recombinant STAT6 protein (STAT6(W123-T658))
T2 sequence (P42226 123-658): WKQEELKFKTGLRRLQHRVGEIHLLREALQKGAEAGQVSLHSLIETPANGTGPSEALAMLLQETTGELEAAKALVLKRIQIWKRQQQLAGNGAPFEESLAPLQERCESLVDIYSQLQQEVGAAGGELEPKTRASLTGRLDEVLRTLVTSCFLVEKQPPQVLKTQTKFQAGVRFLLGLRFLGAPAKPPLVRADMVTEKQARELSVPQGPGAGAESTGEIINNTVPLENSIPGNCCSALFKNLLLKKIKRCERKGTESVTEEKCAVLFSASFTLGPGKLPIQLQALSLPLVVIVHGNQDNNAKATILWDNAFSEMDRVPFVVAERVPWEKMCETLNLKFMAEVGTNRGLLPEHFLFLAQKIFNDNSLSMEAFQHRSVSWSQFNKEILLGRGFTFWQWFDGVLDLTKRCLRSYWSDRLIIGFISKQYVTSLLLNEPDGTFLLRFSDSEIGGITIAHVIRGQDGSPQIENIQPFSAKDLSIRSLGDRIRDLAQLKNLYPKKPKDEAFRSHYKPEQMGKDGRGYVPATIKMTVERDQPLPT
Method in brief: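 Displacement of a fluorescent phosphotyrosine peptide (5-FAM-ApYKPFQDLI-NH2, 2 nM) from STAT6(W123-T658) (250 nM), 1% DMSO, pH 7.4 HEPES buffer. After 45 min at room temperature, polarization (mP) was plotted versus log compound concentration and fitted by nonlinear regression to give IC50.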

T1 sequence (P40763 127-722): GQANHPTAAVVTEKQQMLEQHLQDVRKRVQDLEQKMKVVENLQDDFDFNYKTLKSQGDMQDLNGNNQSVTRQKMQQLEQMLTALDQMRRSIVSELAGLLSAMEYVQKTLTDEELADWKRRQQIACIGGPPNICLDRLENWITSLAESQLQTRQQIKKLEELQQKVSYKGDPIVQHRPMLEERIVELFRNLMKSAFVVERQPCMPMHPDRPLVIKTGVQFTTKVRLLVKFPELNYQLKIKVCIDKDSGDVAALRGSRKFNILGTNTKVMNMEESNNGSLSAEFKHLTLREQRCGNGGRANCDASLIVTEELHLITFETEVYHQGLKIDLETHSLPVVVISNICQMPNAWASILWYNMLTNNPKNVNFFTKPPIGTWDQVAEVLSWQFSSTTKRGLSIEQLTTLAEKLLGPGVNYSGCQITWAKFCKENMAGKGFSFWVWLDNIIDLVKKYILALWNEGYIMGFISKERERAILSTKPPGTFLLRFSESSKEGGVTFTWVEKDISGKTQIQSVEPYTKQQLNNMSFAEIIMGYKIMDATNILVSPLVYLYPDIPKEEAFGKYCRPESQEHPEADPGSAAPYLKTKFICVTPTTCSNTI

| Compound | IC50 [1] | IC50 [2] |
| --- | --- | --- |
| O=C(N[C@H]1CN(C(=O)c2cc3ncccn3n2)CC[C@H]2CC[C@@H](C(=O)N3CCOCC3)N2C1=O)c1ccc2ccc(C(F)P(=O)(O)O)cc2c1 (stereo partly drawn) [Compound 359, (fluoro(7-(((5S,8S,10aR)-8-(morpholine-4-carbonyl)-6-oxo-3-(pyrazolo[1,5-a]pyrimidine-2-carbonyl)decahydropyrrolo[1,2-a] [1,5]diazocin-5-yl)carbamoyl)naphthalen-2-yl)methyl)phosphonic acid] | > 10000 nM | 300 to 3000 nM |
| CC(=O)N1CC[C@H]2CC[C@@H](C(=O)N(C)c3ccc(C#N)cc3)N2C(=O)[C@@H](NC(=O)c2cc3cc(C(F)(F)P(=O)(O)O)ccc3[nH]2)C1 [Compound 168, ((2-(((5S,8S,10aR)-3-acetyl-8-((4-cyanophenyl)(methyl)carbamoyl)-6-oxodecahydropyrrolo[1,2-a][1,5]diazocin-5-yl)carbamoyl)-1H-indol-5-yl)difluoromethyl)phosphonic acid] | 1000 to 10000 nM | 300 to 3000 nM |
| CC(=O)N1CC[C@H]2CC[C@@H](C(=O)Nc3ccc4nnccc4c3)N2C(=O)[C@@H](NC(=O)c2ccc3ccc(C(F)(F)P(=O)(O)O)cc3c2)C1 [Compound 199, ((7-(((5S,8S,10aR)-3-acetyl-8-(cinnolin-6-ylcarbamoyl)-6-oxodecahydropyrrolo[1,2-a][1,5]diazocin-5-yl)carbamoyl)naphthalen-2-yl)difluoromethyl)phosphonic acid] | 1000 to 10000 nM | 300 to 3000 nM |
| Cc1ccc2onc(C(=O)N3CC[C@H]4CC[C@@H](C(=O)N5CCOCC5)N4C(=O)[C@@H](NC(=O)c4ccc5c(F)cc(CP(=O)(O)O)cc5c4)C3)c2c1 [Compound 379, ((4-fluoro-7-(((5S,8S, 10aR)-3-(5-methylbenzo[d]isoxazole-3-carbonyl)-8-(morpholine-4-carbonyl)-6-oxodecahydropyrrolo [1,2-a][1,5]diazocin-5-yl)carbamoyl)naphthalen-2-yl)methyl)phosphonic acid] | > 10000 nM | 300 to 3000 nM |
| CC(=O)N1CC[C@H]2CC[C@@H](C(=O)N3CC[C@@H](C(=O)N4CCCCC4)C3)N2C(=O)[C@@H](NC(=O)c2cc3cc(C(F)(F)P(=O)(O)O)ccc3s2)C1 [Compound 194, ((2-(((5S,8S,10aR)-3-acetyl-6-oxo-8-((R)-3-(piperidine-1-carbonyl)pyrrolidine-1-carbonyl)decahydropyrrolo[1,2-a][1,5]diazocin-5-yl)carbamoyl)benzo[b]thiophen-5-yl)difluoromethyl)phosphonic acid] | 1000 to 10000 nM | 300 to 3000 nM |
| CC(=O)N[C@H]1CCC[C@@H]1NC(=O)[C@@H]1CC[C@@H]2CCN(C(C)=O)C[C@H](NC(=O)c3cc4cc(C(F)(F)P(=O)(O)O)ccc4[nH]3)C(=O)N21 [Compound 32, ((2-(((5S,8S,10aR)-8-(((1S,2S)-2-acetamidocyclopentyl)carbamoyl)-3-acetyl-6-oxodecahydropyrrolo[1,2-a][1,5]diazocin-5-yl)carbamoyl)-1H-indol-5-yl)difluoromethyl)phosphonic acid] | 1000 to 10000 nM | 3000 to 30000 nM |
| CN(C)C(=O)[C@@H]1CC[C@@H]2CCN(c3ccccc3)C[C@H](NC(=O)c3cc4cc(C(F)(F)P(=O)(O)O)ccc4[nH]3)C(=O)N21 [Compound 223, ((2-(((5S,8S,10aR)-8-(dimethylcarbamoyl)-6-oxo-3-phenyldecahydropyrrolo[1,2-a][1,5]diazocin-5-yl)carbamoyl)-1H-indol-5-yl)difluoromethyl)phosphonic acid] | 1000 to 10000 nM | 300 to 3000 nM |
| CC(=O)N1CC[C@H]2CC[C@@H](C(=O)N(C)c3ccccc3)N2C(=O)[C@@H](NC(=O)c2ccc3ccc(C(F)(F)P(=O)(O)O)cc3c2)C1 [Compound 111, ((7-(((5S,8S,10aR)-3-acetyl-8-(methyl(phenyl)carbamoyl)-6-oxodecahydropyrrolo[1,2-a][1,5]diazocin-5-yl)carbamoyl)naphthalen-2-yl)difluoromethyl)phosphonic acid] | > 10000 nM | 300 to 3000 nM |

Further lines, results first:

| IC50 [1] | IC50 [2] | Compound |
| --- | --- | --- |
| 100 to 1000 nM | 300 to 3000 nM | CC(=O)N1CC[C@H]2CC[C@@H](C(=O)N3CC(c4ccc(=O)[nH]c4)[C@@H](C#N)C3)N2C(=O)[C@@H](NC(=O)c2cc3cc(C(F)(F)P(=O)(O)O)ccc3s2)C1 (relative stereo) [Compound 146, ((2-(((5S,8S,10aR)-3-acetyl-8-((rel-trans)-3-cyano-4-(6-oxo-1,6-dihydropyridin-3-yl)pyrrolidine-1-carbonyl)-6-oxodecahydropyrrolo[1,2-a][1,5]diazocin-5-yl)carbamoyl)benzo[b]thiophen-5-yl)difluoromethyl)phosphonic acid] |
| 100 to 1000 nM | 300 to 3000 nM | NC(=O)[C@@H]1CN(C(=O)[C@@H]2CC[C@@H]3CCN(CC(F)F)C[C@H](NC(=O)c4cc5cc(C(F)(F)P(=O)(O)O)ccc5s4)C(=O)N32)C[C@H]1c1ccccc1 (single isomer, unassigned) [Compound 245, ((2-(((5S,8S,10aR)-8-((3S,4R or 3R,4S)-3-carbamoyl-4-phenylpyrrolidine-1-carbonyl)-3-(2,2-difluoroethyl)-6-oxodecahydropyrrolo[1,2-a][1,5]diazocin-5-yl)carbamoyl)benzo[b]thiophen-5-yl)difluoromethyl)phosphonic acid] |
| 100 to 1000 nM | 300 to 3000 nM | CC(=O)N1CC[C@H]2CC[C@@H](C(=O)N3CC(Oc4ccccc4)C3)N2C(=O)[C@@H](NC(=O)c2cc3cc(C(F)(F)P(=O)(O)O)ccc3[nH]2)C1 [Compound 99, ((2-(((5S,8S,10aR)-3-acetyl-6-oxo-8-(3-phenoxyazetidine-1-carbonyl)decahydropyrrolo[1,2-a][1,5]diazocin-5-yl)carbamoyl)-1H-indol-5-yl)difluoromethyl)phosphonic acid] |
| ≤ 100 nM | 300 to 3000 nM | CC(=O)N1CC[C@H]2CC[C@@H](C(=O)N3CC(c4cccc(C#N)c4)C3)N2C(=O)[C@@H](NC(=O)c2cc3cc(C(F)(F)P(=O)(O)O)ccc3s2)C1 [Compound 208, ((2-(((5S,8S,10aR)-3-acetyl-8-(3-(3-cyanophenyl)azetidine-1-carbonyl)-6-oxodecahydropyrrolo[1,2-a][1,5]diazocin-5-yl)carbamoyl)benzo[b]thiophen-5-yl)difluoromethyl)phosphonic acid] |
| 1000 to 10000 nM | ≤ 300 nM | N#CC1CN(C(=O)C2CCC3CNCCC(NC(=O)c4ccc5ccc(C(F)(F)P(=O)(O)O)cc5c4)C(=O)N32)CC1c1ccccc1 (mixture of isomers) [Compound 211, ((7-(((5S,8S,10aR)-8-((rel-trans)-3-cyano-4-phenylpyrrolidine-1-carbonyl)-6-oxodecahydropyrrolo[1,2-a][1,4]diazocin-5-yl)carbamoyl)naphthalen-2-yl)difluoromethyl)phosphonic acid] |
| 1000 to 10000 nM | ≤ 300 nM | CC(=O)N1CC[C@H]2CC[C@@H](C(=O)N3C[C@H](c4ccccc4)[C@@H](C#N)C3)N2C(=O)[C@@H](NC(=O)c2cc3cc(C(F)(F)P(=O)(O)O)ccc3s2)C1 [Compound 124, ((2-(((5S,8S,10aR)-3-acetyl-8-((3R,4S)-3-cyano-4-phenylpyrrolidine-1-carbonyl)-6-oxodecahydropyrrolo[1,2-a][1,5]diazocin-5-yl)carbamoyl)benzo[b]thiophen-5-yl)difluoromethyl)phosphonic acid] |
